Test results from ChEMBL document CHEMBL5725264, “4-(ortho)-fluorophenyl-5-fluoropyrimidin-2-yl amines containing a sulfoximine group” (2016).

Tests used:
[1] = CDK9/CycT1 Kinase Assay: Method 1a: Recombinant full-length His-tagged human CDK9 and CycT1, expressed in insect cells and purified by Ni-NTA affinity chromatography, were purchased from Invitrogen (Cat. No PV4131). As substrate for the kinase reaction biotinylated peptide biotin-Ttds-[…] (C-terminus in amid form) was used which can be purchased e.g. form the company JERINI Peptide Technologies (Berlin, Germany).For the assay 50 nl of a 100 fold concentrated solution of the test compound in DMSO was pipetted into a black low volume 384 well microtiter plate (Greiner Bio-One, Frickenhausen, Germany), 2 ul of a solution of CDK9/CycT1 in aqueous assay buffer [50 mM Tris/HCl pH 8.0, 10 mM MgCl2, 1.0 mM dithiothreitol, 0.1 mM sodium ortho-vanadate, 0.01% (v/v) Nonidet-P40 (Sigma)] were added and the mixture was incubated for 15 min at 22° C. to allow pre-binding of the test compounds to the enzyme before the start of the kinase reaction. […] The concentration of CDK9/CycT1 was adjusted depending of the activity of the enzyme lot and was chosen appropriate to have the assay in the linear range, typical concentrations were in the range of 1 ug/ml. […]
[2] = CDK2/CycE Kinase Assay: Method 2: Recombinant fusion proteins of GST and human CDK2 and of GST and human CycE, expressed in insect cells (Sf9) and purified by Glutathion-Sepharose affinity chromatography, were purchased from ProQinase GmbH (Freiburg, Germany). As substrate for the kinase reaction biotinylated peptide biotin-Ttds-[…] (C-terminus in amid form) was used which can be purchased e.g. form the company JERINI Peptide Technologies (Berlin, Germany).For the assay 50 nl of a 100 fold concentrated solution of the test compound in DMSO was pipetted into a black low volume 384 well microtiter plate (Greiner Bio-One, Frickenhausen, Germany), 2 ul of a solution of CDK2/CycE in aqueous assay buffer [50 mM Tris/HCl pH 8.0, 10 mM MgCl2, 1.0 mM dithiothreitol, 0.1 mM sodium ortho-vanadate, 0.01% (v/v) Nonidet-P40 (Sigma)] were added and the mixture was incubated for 15 min at 22° C. to allow pre-binding of the test compounds to the enzyme before the start of the kinase reaction. […] The concentration of CDK2/CycE was adjusted depending of the activity of the enzyme lot and was chosen appropriate to have the assay in the linear range, typical concentrations were in the range of 130 ng/ml. […]
[3] = CDK9/CycT1 High ATP Kinase Assay: Method 1b: Recombinant full-length His-tagged human CDK9 and CycT1, expressed in insect cells and purified by Ni-NTA affinity chromatography, were purchase from Invitrogen (Cat. No PV4131). As substrate for the kinase reaction biotinylated peptide biotin-Ttds-[…] (C-terminus in amid form) was used which can be purchased e.g. form the company JERINI peptide technologies (Berlin, Germany).For the assay 50 nl of a 100 fold concentrated solution of the test compound in DMSO was pipetted into a black low volume 384 well microtiter plate (Greiner Bio-One, Frickenhausen, Germany), 2 ul of a solution of CDK9/CycT1 in aqueous assay buffer [50 mM Tris/HCl pH 8.0, 10 mM MgCl2, 1.0 mM dithiothreitol, 0.1 mM sodium ortho-vanadate, 0.01% (v/v) Nonidet-P40 (Sigma)] were added and the mixture was incubated for 15 min at 22° C. to allow pre-binding of the test compounds to the enzyme before the start of the kinase reaction. […] The concentration of CDK9/CycT1 was adjusted depending of the activity of the enzyme lot and was chosen appropriate to have the assay in the linear range, typical concentrations were in the range of 0.5 ug/ml. […]

For `C[S@@](=N)(=O)Cc1cc(Nc2ncc(F)c(-c3ccc(F)cc3F)n2)cc(C(F)(F)F)c1`, which IC50 [1] is on record?
The IC50 was 11 nM.

And the IC50 [2]?
The IC50 was 780 nM.

What about the IC50 [3] of the same compound?
Its IC50 is 235 nM.

With `C[S@](=N)(=O)Cc1cc(Nc2ncc(F)c(-c3ccc(F)cc3F)n2)cc(C(F)(F)F)c1` as the compound, how does the IC50 [1] read?
The IC50 was 13 nM.

And the IC50 [2]?
The IC50 was 630 nM.

And the IC50 [3]?
The IC50 was 231 nM.
